In ChEMBL document CHEMBL1156658, “Antifungal cyclic depsipeptide, eujavanicin A, isolated from Eupenicillium javanicum” (2008) one finds Activity and zone of inhibition data, which are given here for 2 molecules.

Experiment [1] has as its system Bacillus subtilis. In words: Antibacterial activity against Bacillus subtilis NBRC3134 assessed as zone of inhibition at 50 ug/disk by paper disk method. Type of experiment: functional, organism-based.
Experiment [2] concerns Salmonella enteritidis. In words: Antibacterial activity against Salmonella enteritidis NBRC3313 assessed as zone of inhibition at 50 ug/disk by paper disk method. Type of experiment: functional, organism-based. To be noted: Salmonella enterica subsp. enterica serovar Enteritidis.
Experiment [3] has as its system Candida albicans. In words: Antimicrobial activity against Candida albicans at 50 ug/disk by paper disk method. Type of experiment: functional, organism-based.
Experiment [4] relates to Escherichia coli. In words: Antibacterial activity against Escherichia coli NBRC14237 assessed as zone of inhibition at 50 ug/disk by paper disk method. Type of experiment: functional, organism-based.
Experiment [5] relates to Salmonella enteritidis. Briefly: Antibacterial activity against Salmonella enteritidis NBRC3313 at 100 ug/disk by paper disk method. Type of experiment: functional, organism-based. As to conditions: Salmonella enterica subsp. enterica serovar Enteritidis.
Experiment [6] concerns Bacillus subtilis. Briefly: Antibacterial activity against Bacillus subtilis NBRC3134 at 100 ug/disk by paper disk method. Type of experiment: functional, organism-based.
The test system of experiment [7] is Cryptococcus neoformans. Briefly: Antimicrobial activity against Cryptococcus neoformans at 50 ug/disk by paper disk method. Type of experiment: functional, organism-based.
In experiment [8] the test system is Escherichia coli. Briefly: Antibacterial activity against Escherichia coli NBRC14237 at 100 ug/disk by paper disk method. Type of experiment: functional, organism-based.
The test system of experiment [9] is Aspergillus niger. Briefly: Antifungal activity against Aspergillus niger at 50 ug/disk by paper disk method. Type of experiment: functional, organism-based.
Experiment [10] concerns Aspergillus fumigatus. Briefly: Antifungal activity against Aspergillus fumigatus assessed as zone of inhibition at 6.25 ug/disk by paper disk method. To be noted: read-out: IZ. Type of experiment: functional.
Experiment [11] deals with Staphylococcus aureus. In words: Antibacterial activity against Staphylococcus aureus […] at 100 ug/disk by paper disk method. Type of experiment: functional, organism-based.
The test system of experiment [12] is Staphylococcus aureus. In words: Antibacterial activity against Staphylococcus aureus […] assessed as zone of inhibition at 50 ug/disk by paper disk method. Type of experiment: functional, organism-based.
In experiment [13] the test system is Cryptococcus neoformans. In words: Antimicrobial activity against Cryptococcus neoformans. Type of experiment: functional, organism-based.
Experiment [14] has as its system Aspergillus niger. Briefly: Antifungal activity against Aspergillus niger. Type of experiment: functional, organism-based.
Experiment [15] has as its system Candida albicans. In words: Antimicrobial activity against Candida albicans. Type of experiment: functional, organism-based.
Experiment [16] deals with Aspergillus fumigatus. In words: Antifungal activity against Aspergillus fumigatus. Type of experiment: functional, organism-based.

Structures are written as SMILES. Active and inactive are the calls of the source. No cut-off for these calls is given here. Non-standard residues stand in square brackets, D forms with d. Residues, ends and D or L forms follow the SMILES beside them. NMeI = CC[C@H](C)[C@H](NC)C(=O)O; NMeD = CN[C@@H](CC(=O)O)C(=O)O; NMeV = CN[C@H](C(=O)O)C(C)C; Pip = O=C(O)[C@@H]1CCCCN1; Lac = C[C@H](O)C(=O)O

In the case of `CC[C@H](C)[C@H]1C(=O)N[C@@H](CC(=O)O)C(=O)N(C)[C@@H](C(C)C)C(=O)N[C@@H](CC(C)C)C(=O)O[C@@H](C)C(=O)N2CCCC[C@H]2C(=O)N(C)[C@@H](C(C)C)C(=O)N[C@@H](C(C)C)C(=O)N(C)[C@@H](CC(=O)O)C(=O)N(C)[C@@H]([C@@H](C)CC)C(=O)N1C` [EUJAVANICIN A] (cyclo(D[NMeV]L[Lac][Pip][NMeV]V[NMeD][NMeI][NMeI])), the result in experiment [1], in [2], in [3], in experiment [4], in experiment [5] and in experiment [6] was inactive. For the same molecule, the outcome in [7], in experiment [8], in experiment [9], in experiment [11] and in [12] was inactive. Besides, the zone of inhibition at 6.25 µg/disc in experiment [10] was found to be 23 mm.

On to `CC[C@H](C)[C@H]1C(=O)N[C@@H](CC(=O)OC)C(=O)N(C)[C@@H](C(C)C)C(=O)N[C@@H](CC(C)C)C(=O)O[C@@H](C)C(=O)N2CCCC[C@H]2C(=O)N(C)[C@@H](C(C)C)C(=O)N[C@@H](C(C)C)C(=O)N(C)[C@@H](CC(=O)OC)C(=O)N(C)[C@@H]([C@@H](C)CC)C(=O)N1C` (cyclo(D(OMe)[NMeV]L[Lac][Pip][NMeV]V[NMeD](OMe)[NMeI][NMeI])), for which the outcome in experiment [13], in experiment [14], in experiment [15], in experiment [5], in [6] and in [8] was inactive. Besides, the result in [11] and in experiment [16] was inactive.
